Source: article PMC10051477, “5,8-Dimethyl-9H-carbazole Derivatives Blocking hTopo I Activity and Actin Dynamics” (Pharmaceuticals, 2023)

Assays:
hTopo I = biological target: T1, hTopo I (Homo sapiens, UniProt P11387); experiment: hTopo I relaxation assay; assay type: biochemical; settings: compound at 1 μM, pHOT1 plasmid, agarose gel
T1 construct: purchased TopoGEN
T1 sequence (P11387 1-765): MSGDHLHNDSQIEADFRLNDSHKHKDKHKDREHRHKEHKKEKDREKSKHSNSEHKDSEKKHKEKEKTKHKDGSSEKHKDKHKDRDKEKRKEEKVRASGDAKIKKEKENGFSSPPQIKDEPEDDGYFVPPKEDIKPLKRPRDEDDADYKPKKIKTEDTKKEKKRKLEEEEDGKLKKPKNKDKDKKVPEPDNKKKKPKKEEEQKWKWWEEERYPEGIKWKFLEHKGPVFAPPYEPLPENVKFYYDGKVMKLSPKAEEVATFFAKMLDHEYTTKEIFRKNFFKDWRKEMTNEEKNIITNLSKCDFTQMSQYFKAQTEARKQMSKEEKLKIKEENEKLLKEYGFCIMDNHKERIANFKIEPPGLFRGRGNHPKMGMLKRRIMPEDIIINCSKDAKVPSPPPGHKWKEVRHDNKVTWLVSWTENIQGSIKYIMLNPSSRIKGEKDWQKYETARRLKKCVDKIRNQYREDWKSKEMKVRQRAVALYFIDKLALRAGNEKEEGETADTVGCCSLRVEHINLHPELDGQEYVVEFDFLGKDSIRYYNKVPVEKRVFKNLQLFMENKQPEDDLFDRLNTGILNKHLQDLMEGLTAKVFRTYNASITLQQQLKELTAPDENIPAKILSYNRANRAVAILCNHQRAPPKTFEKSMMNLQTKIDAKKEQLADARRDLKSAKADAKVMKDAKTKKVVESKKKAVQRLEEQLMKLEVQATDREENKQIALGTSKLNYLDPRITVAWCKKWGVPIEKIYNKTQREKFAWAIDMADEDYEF
Experimental: Indeed, as shown in Figure 3a (lanes 3 and 4), a clear band of the uncut plasmid DNA at the bottom of the gel is present. The uncut plasmid pHOT1, used as marker, is present in Figure 3a, lane 1. On the contrary, in the control reaction (only vehicle, Figure 3a, lane 2), it is possible to observe the presence of multiple bands corresponding to the relaxed plasmid DNA, used as substrate.
hTopo I relaxation assays were performed as indicated in the manufacturer’s protocol (TopoGEN, Port Orange, FL, USA) with some revisions. hTopo I relaxation assays were performed in a final volume of 20 μL: 0.25 μg of supercoiled pHOT1 in TE buffer [TE: 10 mM Tris-HCl (pH 7.5), 1 mM EDTA] was added to a solution containing water, 1× assay buffer (10 mM Tris-HCl (pH 7.9), 1 mM EDTA, 0.5 mM NaCl, 0.1% bovine serum albumin, 0.1 mM spermidine and 5% glycerol) and the tested compounds. The mix was incubated for 15 min at 37 °C. Then, the reaction was initiated by addition of recombinant hTopo I (2 U), incubated at 37 °C for 1 h and terminated by the addition of 5× stop buffer (5% sarkosyl, 25% glycerol, 0.125% bromophenol blue). The aqueous phase was loaded onto a 1% agarose gel containing 1× TAE buffer (diluted from50× buffer containing 242 g Tris base, 57.1 mL glacial acetic acid and 100 mL of 0.5 M EDTA) without ethidium bromide (EB). […]

[1] = biological target: T2, labeled rabbit muscle actin (Oryctolagus cuniculus, UniProt P68135); experiment: In vitro actin polymerization assay; assay type: biochemical; settings: 5 µM, 1 h, room temperature; vehicle plateau about 25,000 RFU
T2 construct: fluorescent label (chemical); purchased Abcam; host or cells: rabbit muscle
Source text: With the aim to confirm the immunofluorescence results and substantiate whether compounds 3 and 4 could inhibit the actin polymerization mechanism and/or boost the F-actin depolymerization, we employed a fluorescent-labeled purified rabbit actin. LA and cytochalasin B (CB) were used as positive controls for both the polymerization inhibition and F-actin subunits dissociation, or only the polymerization inhibition, respectively. In the negative control reaction (only vehicle), actin monomers undergo a normal polymerization, as visible in Figure 5, panel A. The reaction curve rises in approximately 5 min to a value of about 25,000 RFU (plateau) which remains almost unvaried until the end of the experiment. Contrariwise, the two reference molecules, i.e., LA and CB, used at the concentration of 5 µM, braked the actin polymerization, mostly LA rather than CB, under the adopted experimental conditions, and the LA curve dropped until a value of about 8000 RFU at the reaction end.
An Actin Polymerization/Depolymerization Assay Kit, purchased from Abcam, was employed to assess the ability of compounds 3 and 4 to interfere with the actin polymerization and depolymerization processes. To perform the essays, the manufacturer’s instructions were followed with some modifications. In particular, polymerization assay was carried out incubating in a white 96-well plate the reconstituted actin with supplemented Buffer G, compounds 3 and 4 and then Buffer P was added in order to induce actin polymerization. For the Actin Depolymerization Assay, the actin polymerization was first induced, incubating supplemented Buffers P and G at room temperature for one hour. Then, compounds 3 and 4 were added at a concentration of 5 μM. Latrunculin A (LA) and Cytochalasin B (CB) were utilized as positive control at a concentration of 5 μM. For both the assays, the assemblage of the actin filaments was defined by measuring the fluorescence (Ex/Em: 365/410 nm) in kinetic mode for 1 h at room temperature in a microplate reader.

MDA-MB-231 cells = experiment: TUNEL assay (apoptosis); assay type: cell-based, human; settings: MDA-MB-231, 24 h, concentration equal to IC50 values
Experimental: Having individuated two intracellular targets, we wondered whether the lead compounds could induce apoptosis in MDA-MB-231 cells. Thus, we performed a TUNEL assay. […] Indeed, the exposure to both compounds produced a green nuclear fluorescence, already at 24 h, in MDA-MB-231 cells (Figure 6, 3 and 4, panels B, CF^TM488A) as a consequence of the damaged DNA. […] The overlay channel (Figure 6, panels C) is also shown.
TUNEL assay was employed to assess the cells apoptosis, following the manufacturer’s protocols (CF™488A TUNEL Assay Apoptosis Detection Kit, Biotium, Hayward, CA, USA) with few revisions. Briefly, the cells were plated and then additional processed as previously described. DAPI (0.2 μg/mL, Sigma Aldrich, Milan, Italy) was used for nuclei staining. A fluorescence microscope (Leica DM 6000) was used for fluorescence detection (20× magnification). LAS-X software allowed acquiring and processing all the fluorescence images, which are representative of three separate experiments.

SMILES | Inhibition of hTopo I supercoiling relaxing activity (hTopo I) | Actin polymerization, final fluorescence value of reaction curve [1] | Apoptosis induction (TUNEL, green nuclear fluorescence) (MDA-MB-231 cells)
Cc1ccc(C)c2c1c1cc(B(O)O)ccc1n2C(=O)OC(C)(C)C [Compound 3] | totally inhibited | about 13,000 RFU | able to trigger apoptosis
Cc1ccc(C)c2c1c1cc(O)ccc1n2C(=O)OC(C)(C)C [Compound 4] | totally inhibited | around 16,000 RFU | able to trigger apoptosis
